In US9102637B2, “Bicyclic thiazole compounds” (CARNA BIOSCIENCES INC., priority 2013, dated 2015) one finds IC50 data, which are given here for 26 compounds.

The target of this assay is human TNIK (N-terminal segment, TNIK_N, residues 1-314) (Homo sapiens (Human), UniProt Q9UKE5). The experiment in a line: TNIK kinase assay (mobility shift). Format: biochemical. The note with it: TNIK_N kinase activity, 25 μM ATP, 1 h at room temperature. An excerpt: Preparation of Recombinant Human TNIK (N-Terminal Segment):
A cDNA encoding the N-terminal segment (TNIK_N, residues 1-314) containing the kinase domain of human TNIK (NM_015028.1) was amplified from cDNA mixture synthesized from human tissue (Biochain) by PCR using the following primers.
The cDNA was subcloned into baculovirus transfer vector pFastBac_GSTb that includes protease cleavage site and glutathione S-transferase purification tag (GST-tag). The plasmid was purified and the insertion of the pFastBac_GSTb-TNIK_N was confirmed by DNA sequencing. Then E. coli DH10Bac competent cells were transformed with the plasmid to prepare the recombinant bacmid according to the instructions for the Bac-to-Bac™ baculovirus expression systems (Invitrogen). The Sf9 cells were transfected with the recombinant bacmid containing pFastBac_GSTb-TNIK_N using Cellfectin Reagent (Invitrogen) in SF-9001I serum free media (Invitrogen). The viral supernatant was collected from the medium 72 h after transfection. The virus was amplified three times by infecting actively growing Sf9 or Sf21 cells in Grace's insect media (Invitrogen) supplemented with 10% FCS and an antibiotic-antimycotic reagent (Invitrogen) for 72 h at 27° C. in T-flask or roller bottles. The titer of amplified TNIK_N virus was estimated at 2.36×10^8 pfu/ml by using BacPAK™ Baculovirus Rapid Titer kit (Clontech).
Log-phase Sf21 cells (2×10^6 cells/ml) in the Grace's insect media were infected with the recombinant baculovirus at MOI of 3.0 and incubated in roller bottles (250 ml media per bottle) for 72 h at 27° C., after which, the cells were collected by centrifugation, and the cell pellet washed with cold PBS and kept at −80° C. until purification. The following purification procedures were carried out at 4° C. The frozen cells were thawed on ice and lysed in lysis buffer (50 mM Tris-HCl, pH 7.5, 150 mM NaCl, 1% Nonidet P-40, 5 mM DTT, 0.5 mM EDTA, 0.5 mM EGTA) supplemented with 1 mM phenylmethansulfonylfluoride, 2 μg/ml leupeptin, 2 μg/ml aprotinin, 1 mM NaF, 100 μM sodium orthovanadate, and 1 μM cantharidin by sonication. The suspended lysate was cleared by centrifugation at 9000g for 20 min and the supernatant was incubated for 1 h with glutathione Sepharose beads (GE Healthcare). The beads were suspended in buffer-H (50 mM Tris-HCl, pH 7.5, 1 M NaCl, 1 mM DTT, 0.5 mM EDTA, 0.5 mM EGTA and 0.05% Brij35) and washed with buffer-H followed by buffer-L (50 mM Tris-HCl, pH 7.5, 150 mM NaCl, 1 mM DTT, 0.5 mM EDTA, 0.5 mM EGTA, 0.05% Brij35) in an Econo-pack column (BIO-RAD). The bound TNIK_N was eluted with elution buffer (50 mM Tris-HCl, pH 8.0, 150 mM NaCl, 1 mM DTT, 10% glycerol, 0.5 mM EDTA, 0.5 mM EGTA and 5 mM reduced glutathione). The eluted fractions were collected and determined the protein concentration by Bradford reagent (BIO-RAD). The TNIKN fractions were pooled and desalted using 10DG column (BIORAD) equilibrated with the storage buffer (50 mM Tris-HCl, pH 7.5, 150 mM NaCl, 1 mM DTT, 10% glycerol, 0.05% Brij35). The purified TNIKN was characterized by electrophoresis using 4-20% polyacrylamide gels and matrix-assisted laser desorption/ionization reflection time-of-flight (MALDI-TOF) mass spectrometry on a Voyager-DE RP MALDI/TOF (Applied Biosystems). TNIK_N was confirmed by the molecular weight and. MASCOT Peptide Mass Fingerprint.
The kinase assays were conducted in a 20 μl volume using 384-well plates (Greiner). The reaction mixture consists of compound or vehicle (1% DMSO), 0.08 ng/μl TNIK_N, 1 μM FITC-labeled substrate peptides, including E-aminocaproic acid and 7 amino acids (described as SEQ ID NO.3 in “Kinase assay of TEST EXAMPLE 1” of WO 2010/064111(P.31)), 20 mM Hepes, pH 7.5, 0.01% Triton X-100, 5 mM MgCl2, 25 μM ATP and 2 mM DTT. As blank, TNIK N was excluded from the reaction mixture of vehicle (1% DMSO). […]

human TNIK (N-terminal segment, TNIK_N, residues 1-314), sequence (Q9UKE5 1-314): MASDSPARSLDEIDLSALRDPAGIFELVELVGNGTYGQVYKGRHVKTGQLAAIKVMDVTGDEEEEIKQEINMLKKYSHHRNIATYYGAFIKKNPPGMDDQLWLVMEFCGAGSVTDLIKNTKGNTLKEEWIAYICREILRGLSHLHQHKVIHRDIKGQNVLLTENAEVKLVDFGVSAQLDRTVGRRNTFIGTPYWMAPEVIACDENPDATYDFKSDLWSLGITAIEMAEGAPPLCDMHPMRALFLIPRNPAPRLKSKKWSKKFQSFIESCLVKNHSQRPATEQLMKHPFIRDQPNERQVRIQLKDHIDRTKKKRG

As for `NC(=O)c1nc(Nc2ccc3ccccc3c2)sc1NC(=O)C1CC1` [Example 93, 5-(cyclopropanecarboxamido)-2-(naphthalen-2-yl-amino)thiazole-4-carboxamide], the IC50 was determined as 15 nM. The figure for `NC(=O)c1nc(Nc2ccc3ccccc3c2)sc1NC(=O)c1ccc(CN2CC[C@@H](O)C2)cc1` [Example 202, (R)-5-{4-[(3-hydroxypyrrolidin-1-yl)methyl]benzamido}-2-(naphthalen-2-ylamino)thiazole-4-carboxamide] is 5.5 nM; for `NC(=O)c1nc(Nc2ccc3ccccc3c2)sc1NC(=O)c1ccc(Cn2ccnc2)s1` [Example 251, 5-{5-[(1H-imidazol-1-yl)methyl]thiophene-2-carboxamido}-2-(naphthalen-2-ylamino)thiazole-4-carboxamide] it is 7.7 nM. For `Cc1noc(Cc2ccc(C(=O)Nc3sc(Nc4ccc5ccccc5c4)nc3C(N)=O)cc2)n1` [Example 256, 5-{4-[(3-methyl-1,2,4-oxadiazol-5-yl)methyl]benzamido}-2-(naphthalen-2-ylamino)thiazole-4-carboxamide] the value was 18.5 nM. The figure for `NC(=O)c1nc(Nc2ccc3ccccc3c2)sc1NC(=O)c1ccc(NCCO)c(N)c1` [Example 121, 5-{3-amino-4-[(2-hydroxyethyl)amino]benzamido}-2-(naphthalen-2-ylamino)thiazole-4-carbox-amide] is 24.4 nM. As to `NC(=O)c1nc(Nc2cccc3ncccc23)sc1NC(=O)c1ccc(Cn2ccnc2)cc1` [Example 254, 5-{4-[(1H-imidazol-1-yl)methyl]benzamido}-2-(quinolin-5-ylamino)thiazole-4-carboxamide], the IC50 came out at 4.8 nM. The figure for `NC(=O)c1nc(Nc2ccc3ccccc3c2)sc1NC(=O)c1ccc(Cn2cccn2)cc1` [Example 232, 5-{4-[(1H-pyrazol-1-yl)methyl]benzamido}-2-(naphthalen-2-ylamino)thiazole-4-carboxamide] is 10.3 nM; for `NC(=O)c1nc(Nc2ccc3ccccc3c2)sc1NC(=O)c1ccc(CN2CCCCC2CO)cc1` (centres unmarked) [Example 189, 5-(4-{[2-(hydroxymethyl)piperidin-1-yl]methyl}benzamido)-2-(naphthalen-2-ylamino)thiazole-4-carboxamide] it is 6.8 nM; for `C[C@H](O)CNc1ccc(C(=O)Nc2sc(Nc3ccc4ccccc4c3)nc2C(N)=O)cc1` [Example 146, (S)-5-{4-[(2-hydroxypropyl)amino]benzamido}-2-(naphthalen-2-ylamino)thiazole-4-carboxamide] it is 15.1 nM.

Take `CN(C)[C@H]1CCN(Cc2ccc(C(=O)Nc3sc(Nc4ccc5ccccc5c4)nc3C(N)=O)cc2)C1` [Example 221, (S)-5-(4-{[3-(dimethylamino)pyrrolidin-1-yl]methyl}benzamido)-2-(naphthalen-2-ylamino) thiazole-4-carboxamide]: the concentration for half-maximal inhibition (IC50) was 2.6 nM.

On to `NC(=O)c1nc(Nc2ccc3ccc(F)cc3c2)sc1NC(=O)C1CC1` [Example 122, 5-(cyclopropanecarboxamido)-2-[(7-fluoro-naphthalen-2-yl)amino]thiazole-4-carboxamide], for which the half-maximal inhibitory concentration (IC50) was found to be 12.8 nM.

As for `NC(=O)c1nc(Nc2ccc3ccccc3c2)sc1NC(=O)C#CCCO` [Example 225, 5-(5-hydroxypent-2-ynamido)-2-(naphthalen-2-ylamino)thiazole-4-carboxamide], the IC50 worked out at 4 nM. For the compound `NC(=O)c1nc(Nc2cccc3ncccc23)sc1NC(=O)c1ccsc1` [Example 40, 2-(quinolin-5-ylamino)-5-(thiophene-3-carbox-amido)thiazole-4-carboxamide], the IC50 stood at 9.4 nM. For `NC(=O)c1nc(Nc2ccnc3ccccc23)sc1NC(=O)c1ccc(Cn2ccnc2)cc1` [Example 255, 5-{4-[(1H-imidazol-1-yl)methyl]benzamido}-2-(quinolin-4-ylamino)thiazole-4-carboxamide] the value was 26.5 nM; for `NC(=O)c1nc(Nc2ccc3ccccc3c2)sc1NC(=O)c1ccc(CN2CCC(N)CC2)cc1` [Example 222, 5-{4-[(4-aminopiperidin-1-yl)methyl]benzamido}-2-(naphthalen-2-ylamino)thiazole-4-carboxamide], 1.3 nM. Turning to `NC(=O)c1nc(Nc2ccc3ncccc3c2)sc1NC(=O)c1ccc(Cn2ccnc2)cc1` [Example 250, 5-{4-[(1H-imidazol-1-yl)methyl]benzamido}-2-(quinolin-6-ylamino)thiazole-4-carboxamide], the IC50 amounted to 3 nM. The figure for `NC(=O)c1nc(Nc2ccc3ccccc3c2)sc1NC(=O)c1ccc[nH]1` [Example 33, 2-(naphthalen-2-ylamino)-5-(1H-pyrrole-2-carbox-amido)thiazole-4-carboxamide] is 7.5 nM; for `C[C@@H](O)CNc1ccc(C(=O)Nc2sc(Nc3ccc4ccccc4c3)nc2C(N)=O)cc1` [Example 147, (R)-5-{4-[(2-hydroxypropyl)amino]benzamido}-2-(naphthalen-2-ylamino)thiazole-4-carboxamide] it is 16.8 nM. The figure for `CN1CCN(C/C=C/C(=O)Nc2sc(Nc3ccc4ccccc4c3)nc2C(N)=O)CC1` [Example 174, (E)-5-(4-(4-methylpiperazin-1-yl)but-2-enamido)-2-(naphthalen-2-ylamino)thiazole-4-carboxamide] is 16 nM. Turning to `COc1ccc2cc(Nc3nc(C(N)=O)c(NC(=O)c4ccc(Cn5ccnc5)cc4)s3)ccc2c1` [Example 248, 5-{4-[(1H-imidazol-1-yl)methyl]benzamido}-2-[(6-methoxynaphthalen-2-yl)amino]thiazole-4-carboxamide], the IC50 is 6.1 nM. For `NCCNc1ccc(C(=O)Nc2sc(Nc3ccc4ccccc4c3)nc2C(N)=O)cc1` [Example 188, 5-{4-[(2-aminoethyl)amino]benzamido}-2-(naph-thalen-2-ylamino)thiazole-4-carboxamide] the value was 8.4 nM. For `NC(=O)c1nc(Nc2ccc3ccccc3c2)sc1NC(=O)c1ccc(CN2CC[C@H](N)C2)cc1` [Example 220, (S)-5-{4-[(3-aminopyrrolidin-1-yl)methyl]benz-amido}-2-(naphthalen-2-ylamino)thiazole-4-carbox-amide] the value was 3 nM.

Consider `CC(C)=CC(=O)Nc1sc(Nc2ccc3ccc(F)cc3c2)nc1C(N)=O` [Example 128, 2-[(7-fluoronaphthalen-2-yl)amino]-5-(3-methyl-but-2-enamido)thiazole-4-carboxamide], for which the 50% inhibitory concentration (IC50) worked out at 7.2 nM. For `Cc1ccc(C(=O)Nc2sc(Nc3ccc4cc(CO)ccc4c3)nc2C(N)=O)s1` [Example 151, 2-{[6-(hydroxymethyl)naphthalen-2-yl]amino}-5-(5-methylthiophene-2-carboxamido)thiazole-4-carboxamide] the value was 11.1 nM. The figure for `COc1ccc2cc(Nc3nc(C(N)=O)c(NC(=O)c4ccc(N)cc4)s3)ccc2c1` [Example 136, 5-(4-aminobenzamido)-2-[(6-methoxynaphthalen-2-yl)amino]thiazole-4-carboxamide] is 9.7 nM; for `Cc1nnc(Cc2ccc(C(=O)Nc3sc(Nc4ccc5ccccc5c4)nc3C(N)=O)cc2)o1` [Example 257, 5-{4-[(5-methyl-1,3,4-oxadiazol-2-yl)methyl]benzamido}-2-(naphthalen-2-ylamino)thiazole-4-carboxamide] it is 6.2 nM.
